This is an account of results in ChEMBL document CHEMBL3507680, “University of Dundee, Gates Library screen for HepG2 cell viability”.

This data set in a line: Human HepG2 cell viability assay in 384 well format. It counts as toxicity, cell-based. Details: dose 125 nL, time 70.5 hour; cytotoxicity at 70.5 h: concentration not given beside the values. The note with it: HepG2 cells, read-out: Inhibition.
`Cc1cncc(C(=O)N2CCO[C@H]3[C@H](OCCN(C)C)CC[C@@H]32)c1`: the cytotoxicity at 70.5 h was -12.9%. Next, `O=C(O)CC(CC(=O)NCCc1ccsc1)c1cccs1` (stereo not given): -13.1%. Next, `NS(=O)(=O)CCNC(=O)C1(c2ccc(Br)cc2)CC1`: -10.5%. Next, `FC1(F)CCN(c2ccccc2)CC12CCN(c1ncccn1)C2` (stereo not given): -1.34%; `CCOC(=O)C1CCCN(Cc2c[nH]nc2-c2cc3ccccc3o2)C1` (stereo not given): 18.3%; `CSCCc1c(-c2ccccc2)ncn1CC(C)(C)N1CCOCC1`: -11.9%. As to `CCOc1ccc(Cl)cc1NC(=O)N1CCC(n2cncn2)CC1`, the cytotoxicity at 70.5 h was -7.8%. Next, `O=C(c1cccnc1)N1CCOCC2(CCN(c3ncccn3)C2)C1` (stereo not given): -1.45%. `CN(Cc1nnn(CC2CCC2)n1)C(=O)c1ccccc1`: the cytotoxicity at 70.5 h was -2.78%. `CC(CN1CCOCC1)NC(=O)NCCc1ccc(Cl)s1` (stereo not given): the cytotoxicity at 70.5 h is -6.3%. Next, `Cc1ccccc1CN1CCCC1c1cncc(Nc2nncs2)n1` (stereo not given): -13.3%; `COc1ccc(C(C)N2CCC(CNC(C)=O)CC2)cc1Cl` (stereo not given): -1.84%; `O=C(NCC1CC(=O)N(CCc2ccccc2)C1)c1ccon1` (stereo not given): -3.55%.

`Cn1ccnc1CCNS(=O)(=O)c1ccc(Br)cc1`: the cytotoxicity at 70.5 h is 9.92%. Turning to `CC(NC(=O)NCCn1ccnc1)c1ccc2c(c1)OCCO2` (stereo not given), the cytotoxicity at 70.5 h was -14.3%. Next, `O=C(N1CCCC1)N1CCN(CC2CC2)c2ncccc2C1`: 6.34%; `CCn1cc(CN2CCCN(C(=O)CCc3cnn(C)c3)CC2)cn1`: -11.5%; `O=C(c1ccc[nH]1)N1CCC2(CC1)CC(Oc1cccnc1)CO2` (stereo not given): 25%.

`Cc1ocnc1CNC(=O)Nc1ccc(N2CCOC(C)C2)cc1` (stereo not given): the cytotoxicity at 70.5 h was -17.7%.

Regarding `O=C1NCCCCC1NC(=O)C1(c2cccc(C(F)(F)F)c2)CC1` (stereo not given), the cytotoxicity at 70.5 h stood at 0.452%.

For `CO[C@@H]1CN(c2ccccc2)S(=O)(=O)[C@@]12CCN(C)C2`, the cytotoxicity at 70.5 h is -7.99%. Next, `OC(CNC1CCOCC1)c1ccc(Cl)c(F)c1` (stereo not given): 0.212%; `CN(C)S(=O)(=O)N1CCC(C(O)c2ccc(Cl)cc2)CC1` (stereo not given): -10.4%.

In the case of `C[S+]([O-])c1nncn1CC(=O)c1cccc(Cl)c1` (stereo not given), the cytotoxicity at 70.5 h was -7.53%.

In the case of `Cn1cc(CN2CCC3(CC2)C(=O)Nc2ccccc23)cn1`, the cytotoxicity at 70.5 h was -6.51%. Next, `Cc1nc(C)n(CC2CCCN2Cc2nc(C)c3ccccc3n2)n1` (stereo not given): -7.3%. Next, `Cc1cnn(C2CN(CC(=O)NCc3ccccn3)C2)c1`: 16.5%; `CCCc1nc(C)cc(N2CCC3(CCC(=O)N(CCO)C3)CC2)n1`: -4.4%; `CC1CCCCN1CCNC(=O)NCc1ccc(C#N)cc1F` (stereo not given): -6.05%. Take `Cc1nn(C)c(C)c1-c1ccnc(N(C)Cc2nc(C(C)C)no2)n1`: the cytotoxicity at 70.5 h came out at 3.94%. As for `O=S1(=O)NC[C@H]2CCN(Cc3ccccc3)CC[C@H]21`, the cytotoxicity at 70.5 h was -2.52%. For the molecule `COc1cc(Cl)ccc1C(=O)NCc1nncn1C`, the cytotoxicity at 70.5 h is -6.32%. Regarding `O=C(Nc1nc2c(s1)CN(S(=O)(=O)C1CC1)CC2)Nc1ccccc1F`, the cytotoxicity at 70.5 h amounted to 23.7%. Next, `COC(=O)CN(C(=O)c1ccc(Cl)o1)c1cccc(F)c1`: -11.3%; `Cc1csc(N2CCCN(C(=O)C(C)n3ccnc3)CC2)n1` (stereo not given): -3.25%. Next, `Cc1nc2nc(C)c3c(=O)n(-c4ccn[nH]4)ccc3n2n1`: 10.9%; `Cc1ccccc1CS(=O)(=O)NCCCN1CCCC1`: -2.2%. Next, `O=C1NC2(Cc3ccccc31)CN(CC1CCCC1)C2`: -11.8%.

Turning to `CC(C)c1nc(N2CCC(N3CCCCCC3)CC2)c2cnn(C)c2n1`, the cytotoxicity at 70.5 h was 13%. Regarding `COc1cc(CN(C)C(=O)Nc2cc(C)on2)ccc1SC`, the cytotoxicity at 70.5 h is -1.35%.
